# Assay results published in patent US10618937B2, “Method of treating Alzheimer's disease” (INDUSTRY-ACADEMIC COOPERATION FOUNDATION GYEONGSANG …, priority 2016, dated 2020).
# System: APP/PS1 model mice
# Assay: Morris water maze test in APP/PS1 model mice
# Format: in vivo
# Conditions: APP/PS1 model mice treated, compared to APP/PS1 model mice
# Method: Male C57BL/6J wild type mice and double transgenic B6.Cg-Tg (APPswe, PSENdE9) 85Dbo Mmjax (APP/PS1) AD-model mice were obtained from Jackson Laboratories (Bar Harbor, Me., USA). The brains of the double transfected mice express Swedish mutation-containing chimeric mouse-human amyloid precursor protein (Mo/HuAPP695swe) and mutant human presenilin 1 protein (PS1-dE9). The mice were fed with an unlimited supply of food and water at an animal breeding ground of a university at a temperature of 23° C., at the relative humidity of 60±10% and in the black and light cycle of 12 h/12 h. […]
# The Morris Underwater Maze Test System was constructed as a circular water tank with a diameter of 100 cm and a height of 40 cm containing 15.5 cm depth of water (temperature of 23±1° C.) which was opaque with white ink added. […] The delay time for escaping from the water maze (the time to find the hidden escape platform) was calculated for each trial. […] For the probe experiment, the platform was removed, each mouse was allowed to freely swim for 60 seconds, the amount of time the mouse spent in the target quadrant was measured, and the number of platform positions the mouse passed by (where the platform was located during the hidden platform training). […] All data were recorded by using video-tracking software (SMART, Panlab Harward Apparatus, Bioscience Company, Holliston, Mass., USA).
substance,measurement,value
RGPCG (adiponectin receptor-activating peptide) [5AA1],time for staying where the platform was located (probe test),increased
